What was measured:
[1] = system: bronchospasm induced by acetylcholine; test: bronchospasmolytic activity (Konzett and Roessler), bronchospasm induced by acetylcholine; format: in vivo, Dunkin-Hartley guinea-pig; settings: Cavia porcellus; intravenous; acetylcholine-induced bronchospasm; read-out: Doses (ID50), Acetylcholine
How it was run: (§1)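 Anesthetized (urethane), curarized, ventilated Dunkin-Hartley guinea-pigs with endotracheal pressure recorded after histamine, serotonin or acetylcholine challenge. Compound given i.v. 2 min before spasmogen, then in 3–4 increasing cumulative doses at 15-min intervals; six animals per compound and spasmogen.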

[2] = system: bronchospasm induced by serotonin; test: bronchospasmolytic activity (Konzett and Roessler), bronchospasm induced by serotonin; format: in vivo, Dunkin-Hartley guinea-pig; settings: Cavia porcellus; intravenous; serotonin-induced bronchospasm; read-out: Doses (ID50), Serotonin
How it was run: as §1

[3] = system: anaphylactic release of histamine, guinea-pig lung sections; test: inhibition of the anaphylactic release of histamine (proper effect); format: cell-based, Dunkin-Hartley guinea-pigs; settings: Cavia porcellus, in vitro, read-out: Minimum inhibitory dose (MID)
[4] = system: bronchospasm induced by histamine; test: bronchospasmolytic activity (Konzett and Roessler), bronchospasm induced by histamine; format: in vivo, Dunkin-Hartley guinea-pig; settings: Cavia porcellus; intravenous; histamine-induced bronchospasm; read-out: Doses (ID50), Histamine
How it was run: as §1

[5] = system: PMN granulocytes; test: inhibition of the stimulation of PMN granulocytes (chemiluminescence); format: cell-based, Rat; settings: Rattus norvegicus; 10^-6 mole/l; FMLP 3.2×10^-7 mole/liter; read-out: Residual chemiluminescence
Excerpt: Polymorphonuclear neutrophil granulocytes (PMN) are cells which are mobilized during inflammatory phenomena and which can be stimulated by various compounds, such as, for example, formylmethionyl-leucylphenylalanine (FMLP) or prostaglandins E (PGE1). The PMN granulocytes respond to these extracellular stimuli with an activation of the oxygen metabolism with release of toxic oxygenated metabolites. An excessive response of the PMN granulocytes may be the cause of a painful inflammation and is also accompanied by a reduction in the level of cyclic adenosine monophosphate (cAMP) in these granulocytes. Consequently, compounds which inhibit the respiratory burst of PMN granulocytes or which increase the level of cAMP can be regarded as very important in the treatment of arthritis and asthma. […] Rat PMN granulocytes (5×10^6 /ml) are preincubated in a phosphate buffer ([…], pH 7.4), containing luminol at a concentration of 10^-5 mole per liter, for 15 minutes at 37° C. and then for 5 minutes in the presence of the compound to be treated at a concentration of 10^-6 mole/liter. […] The luminescence which results from the stimulation is measured by means of an LKB 1251 luminometer according to the method of […] and […] (Infection and Immunology, 37, (1982), 34-39). An experimental cycle lasts 38 seconds. The reaction is repeated 9 times for each compound to be tested and the average of the results obtained is calculated.

[6] = system: longitudinal muscles of the ileum contracted by histamine; test: potentiation of the myorelaxing effect of isoprenaline on the ileum; format: cell-based, Dunkin-Hartley guinea-pigs; settings: with isoprenaline 10^-7 mole/l; histamine 3.2 μmoles/l
How it was run: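 Isolated ileal longitudinal muscle contracted by repeated histamine injections; test compound injected after wash, and the next histamine contraction compared with the mean of three preceding control contractions to give % inhibition. Potentiation cycle: % inhibition by compound alone at a given dose, then with isoprenaline co-injected, repeated per dose.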

[7] = system: anaphylactic release of histamine, guinea-pig lung sections; test: potentiation of the inhibition of anaphylactic histamine release by isoprenaline; format: cell-based, Dunkin-Hartley guinea-pigs; settings: with isoprenaline 10^-7 mole per liter
[8] = toxicity, Irwin's test; format: in vivo; settings: i.p.; death of two animals out of three within 48 hours
Protocol: Progressive doses of the compound to be tested are administered intraperitoneally to groups of three mice until the lethal dose is reached (dose which causes the death of two animals out of three within 48 hours).

[9] = system: amnesia induced by scopolamine; test: multiple-trial passive avoidance: mnemic retention, amnesia induced by scopolamine
Protocol: To this end, the method of multiple-trial passive avoidance has been used. […] The test is carried out on male Sprague-Dawley rats (160-200 g). which are kept in standard cages throughout the experiment. The apparatus used is a transparent square cage with 35 cm sides and 25 cm high, fitted with a grid floor which can be electrified. A rubber insulating mat (10×17 cm) is placed on the floor in one of the corners of the cage.
Each animal is subjected to four tests at times 0, 4, 24 and 28 hours. In the first test (time 0), the animal is placed on the rubber mat and the time which it takes to decide to leave this position to explore the cage is recorded. After 20 seconds of exploration, the rat receives an electric shock (3 seconds duration) in the paws, causing an escape reaction. The rat is immediately removed from the apparatus and replaced in its original cage. In the course of the three subsequent tests (times: 4, 24 and 28 hours), the animal is replaced on the rubber mat and the time taken to leave this position is recorded. As soon as the four paws of the animal rest on the grid, it receives an electric shock and is removed immediately from the apparatus.
At the start of the experiment, the rats are divided into 4 homogeneous groups of 15 animals. Thirty minutes before each test, each group of animals is subjected to a predetermined treatment:
Groups 1 and 2 are used in the first experiment (learning) and groups 3 and 4 in the second experiment (mnemic retention).
The differences found are analyzed statistically by the Mann-Whitney method.

[10] = 4 hours, 2.8 mg/kg i.p. + 0.5 mg scopolamine
[11] = 24 hours, 2.8 mg/kg i.p. + 0.5 mg scopolamine
[12] = 28 hours, 2.8 mg/kg i.p. + 0.5 mg scopolamine
[13] = time 0, 2.8 mg/kg i.p. + 0.5 mg scopolamine

| SMILES | ED50 [1] [µmol/kg] | ED50 [2] [µmol/kg] | minimal effective concentration [3] [µM] | ED50 [4] [µmol/kg] | activity at 1 µM [5] [%] | Minimum potentiating dose (MPD) [6] [µmol/L] | Minimum potentiating dose (MPD) [7] [µmol/L] | Lethal dose [8] [mg/kg] | Period of remaining on the mat, group 4 [9, 10] [s] | Period of remaining on the mat, group 4 [9, 11] [s] | Period of remaining on the mat, group 4 [9, 12] [s] | Period of remaining on the mat, group 4 [9, 13] [s] | Period of remaining on the mat, group 4 ([9]; 4 hours, 1.0 mg/kg i.p. + 0.5 mg scopolamine) [s] | Period of remaining on the mat, group 4 ([9]; 24 hours, 1.0 mg/kg i.p. + 0.5 mg scopolamine) [s] | Period of remaining on the mat, group 4 ([9]; 28 hours, 1.0 mg/kg i.p. + 0.5 mg scopolamine) [s] | Period of remaining on the mat, group 4 ([9]; time 0, 1.0 mg/kg i.p. + 0.5 mg scopolamine) [s] | Period of remaining on the mat, group 4 ([9]; 4 hours, 3.25 mg/kg i.p. + 0.5 mg scopolamine) [s] | Period of remaining on the mat, group 4 ([9]; 24 hours, 3.25 mg/kg i.p. + 0.5 mg scopolamine) [s] | Period of remaining on the mat, group 4 ([9]; 28 hours, 3.25 mg/kg i.p. + 0.5 mg scopolamine) [s] | Period of remaining on the mat, group 4 ([9]; time 0, 3.25 mg/kg i.p. + 0.5 mg scopolamine) [s] |
| --- | --- | --- | --- | --- | --- | --- | --- | --- | --- | --- | --- | --- | --- | --- | --- | --- | --- | --- | --- | --- |
| C1CC(c2nc(NC3CC3)nc(N3CCOCC3)n2)C1 [Compound 4, 2-cyclobutyl-4-cyclopropylamino-6-morpholino-1,3,5-triazine] | 0.03 | 0.03 | 0.32 | 0.004 | 45 | 0.032 | 0.1 | 165 | 44.5 | 91.5 | 106.6 | 12.3 |  |  |  |  |  |  |  |  |
| CCCc1nc(NC2CC2)nc(N2CCC(O)CC2)n1 [Compound 5] | 0.1 | 0.1 | 0.32 | 0.06 | 74 | 1.0 | 3.2 | 277.4 | 34.2 | 35.9 | 73.3 | 14.5 |  |  |  |  |  |  |  |  |
| C1CN(c2nc(NC3CC3)nc(C3CC3)n2)CCO1.Cl [Compound 3, 2-cyclopropyl-4-cyclopropylamino-6-morpholino-1,3,5-triazine hydrochloride] | 0.07 | 0.1 | 0.032 | 0.03 | 39 | 0.032 | 0.32 | 297.8 |  |  |  |  | 35.5 | 105.0 | 121.0 | 6.5 |  |  |  |  |
| C1CC1Nc1nc(C2CC2)nc(N2CC3CCC(C2)O3)n1 [Compound 16] | 0.05 | 0.009 | 0.1 | 0.009 | 42 | 0.032 | 0.032 | 194 |  |  |  |  |  |  |  |  | 35.1 | 118.5 | 101.1 | 11.3 |

Reference: US5348956A, “Substituted cyclopropylamino-1,3,5-triazines” (UCB S.A., priority 1991, dated 1994)
